Experimental data from ChEMBL document CHEMBL5046216, “Disrupting Tryptophan in the Central Hydrophobic Region Selectively Mitigates Immunomodulatory Activities of the Innate Defence Regulator Peptide IDR-1002” (J Med Chem, 2021).
Calls of active or inactive are those of the source.

Assays:
Mus musculus [1] = test: Effect on IL-4 level in dust-mite-induced BALB/c mouse model of airway inflammation assessed as greater than 2 fold induction at 6 mg/kg, sc administered for 2 weeks and measured 24 hrs post-HDM challenge by MSD multiplex assay; type: functional, organism-based
HBEC3-KT [2] = test: Antiinflammatory activity in human HBEC3-KT cells assessed as effect on MCP1 expression measured after 24 hrs by ELISA relative to control; type: functional, cell-based
Mus musculus [3] = test: Effect on IL-17A level in dust-mite-induced BALB/c mouse model of airway inflammation assessed as greater than 2 fold induction at 6 mg/kg, sc administered for 2 weeks and measured 24 hrs post-HDM challenge by MSD multiplex assay; type: functional, organism-based
Mus musculus [4] = test: Effect on IL-15 level in dust-mite-induced BALB/c mouse model of airway inflammation assessed as greater than 2 fold induction at 6 mg/kg, sc administered for 2 weeks and measured 24 hrs post-HDM challenge by MSD multiplex assay; type: functional, organism-based
Mus musculus [5] = test: Effect on IL-30 level in dust-mite-induced BALB/c mouse model of airway inflammation assessed as greater than 2 fold induction at 6 mg/kg, sc administered for 2 weeks and measured 24 hrs post-HDM challenge by MSD multiplex assay; type: functional, organism-based
HBEC3-KT [6] = test: Antiinflammatory activity in INFgamma-induced MCP1 expressed in human HBEC3-KT cells assessed as fold change measured after 24 hrs by ELISA relative to control; type: functional
Mus musculus [7] = test: Effect on KC 10 level in dust-mite-induced BALB/c mouse model of airway inflammation assessed as greater than 2 fold induction at 6 mg/kg, sc administered for 2 weeks and measured 24 hrs post-HDM challenge by MSD multiplex assay; type: functional, organism-based
Mus musculus [8] = test: Effect on IL-12p70 level in dust-mite-induced BALB/c mouse model of airway inflammation assessed as greater than 2 fold induction at 6 mg/kg, sc administered for 2 weeks and measured 24 hrs post-HDM challenge by MSD multiplex assay; type: functional, organism-based
Mus musculus [9] = test: Effect on MIP3alpha level in dust-mite-induced BALB/c mouse model of airway inflammation assessed as greater than 2 fold induction at 6 mg/kg, sc administered for 2 weeks and measured 24 hrs post-HDM challenge by MSD multiplex assay; type: functional, organism-based
Mus musculus [10] = test: Effect on IL-31 level in dust-mite-induced BALB/c mouse model of airway inflammation assessed as greater than 2 fold induction at 6 mg/kg, sc administered for 2 weeks and measured 24 hrs post-HDM challenge by MSD multiplex assay; type: functional, organism-based
Mus musculus [11] = test: Effect on IL-5 level in dust-mite-induced BALB/c mouse model of airway inflammation assessed as greater than 2 fold induction at 6 mg/kg, sc administered for 2 weeks and measured 24 hrs post-HDM challenge by MSD multiplex assay; type: functional, organism-based
Mus musculus [12] = test: Effect on TNF 1 level in dust-mite-induced BALB/c mouse model of airway inflammation assessed as greater than 2 fold induction at 6 mg/kg, sc administered for 2 weeks and measured 24 hrs post-HDM challenge by MSD multiplex assay; type: functional, organism-based
Mus musculus [13] = test: Effect on IL-21 level in dust-mite-induced BALB/c mouse model of airway inflammation assessed as greater than 2 fold induction at 6 mg/kg, sc administered for 2 weeks and measured 24 hrs post-HDM challenge by MSD multiplex assay; type: functional, organism-based
HBEC3-KT [14] = test: Immunomodulatory activity in human HBEC3-KT cells assessed as suppression of INFgamma-induced IL-33 at 10 uM preincubated for 30 mins followed by INFgamma stimulation and measured after 24 hrs by Western blot analysis; type: functional
Mus musculus [15] = test: Effect on IL-6 level in dust-mite-induced BALB/c mouse model of airway inflammation assessed as greater than 2 fold induction at 6 mg/kg, sc administered for 2 weeks and measured 24 hrs post-HDM challenge by MSD multiplex assay; type: functional, organism-based
Mus musculus [16] = test: Antiinflammatory activity in house dust-mite-induced BALB/c mouse model of airway inflammation assessed as suppression of IL-33 abundance in lung tissue lysate at 6 mg/kg, sc administered for 2 weeks and measured 24 hrs post-HDM challenge by ELISA; type: functional
Mus musculus [17] = test: Effect on MCP1 level in dust-mite-induced BALB/c mouse model of airway inflammation assessed as greater than 2 fold induction at 6 mg/kg, sc administered for 2 weeks and measured 24 hrs post-HDM challenge by MSD multiplex assay; type: functional, organism-based
Mus musculus [18] = test: Effect on IL-17AF level in dust-mite-induced BALB/c mouse model of airway inflammation assessed as greater than 2 fold induction at 6 mg/kg, sc administered for 2 weeks and measured 24 hrs post-HDM challenge by MSD multiplex assay; type: functional, organism-based
Mus musculus [19] = test: Effect on IL-2 level in dust-mite-induced BALB/c mouse model of airway inflammation assessed as greater than 2 fold induction at 6 mg/kg, sc administered for 2 weeks and measured 24 hrs post-HDM challenge by MSD multiplex assay; type: functional, organism-based
Mus musculus [20] = test: Effect on IFNgamma level in dust-mite-induced BALB/c mouse model of airway inflammation assessed as greater than 2 fold induction at 6 mg/kg, sc administered for 2 weeks and measured 24 hrs post-HDM challenge by MSD multiplex assay; type: functional, organism-based
Mus musculus [21] = test: Effect on IL-25 level in dust-mite-induced BALB/c mouse model of airway inflammation assessed as greater than 2 fold induction at 6 mg/kg, sc administered for 2 weeks and measured 24 hrs post-HDM challenge by MSD multiplex assay; type: functional, organism-based
Mus musculus [22] = test: Effect on IL-10 level in dust-mite-induced BALB/c mouse model of airway inflammation assessed as greater than 2 fold induction at 6 mg/kg, sc administered for 2 weeks and measured 24 hrs post-HDM challenge by MSD multiplex assay; type: functional, organism-based
Mus musculus [23] = test: Effect on MIP2 level in dust-mite-induced BALB/c mouse model of airway inflammation assessed as greater than 2 fold induction at 6 mg/kg, sc administered for 2 weeks and measured 24 hrs post-HDM challenge by MSD multiplex assay; type: functional, organism-based
Mus musculus [24] = test: (§1) Antiinflammatory activity in house dust-mite-induced BALB/c mouse model of methacholine-induced airway hyperreactivity assessed as reduction in methacholine-induced tissue elastance at 6 mg/kg , ip administered for 2 weeks after methacholine-stimulation at 12 mg/ml measured 24 hrs post-HDM challenge; type: functional, organism-based
Mus musculus [25] = test: Effect on MIP1alpha level in dust-mite-induced BALB/c mouse model of airway inflammation assessed as greater than 2 fold induction at 6 mg/kg, sc administered for 2 weeks and measured 24 hrs post-HDM challenge by MSD multiplex assay; type: functional, organism-based
Mus musculus [26] = test: as §1, with “newtonian resistance” for “tissue elastance”; type: functional, organism-based
HBEC3-KT [27] = test: Cytotoxicity against human HBEC3-KT incubated for 24 hrs by LDH assay; type: functional
Mus musculus [28] = test: Effect on IL-23 level in dust-mite-induced BALB/c mouse model of airway inflammation assessed as greater than 2 fold induction at 6 mg/kg, sc administered for 2 weeks and measured 24 hrs post-HDM challenge by MSD multiplex assay; type: functional, organism-based
Mus musculus [29] = test: Effect on IP10 level in dust-mite-induced BALB/c mouse model of airway inflammation assessed as greater than 2 fold induction at 6 mg/kg, sc administered for 2 weeks and measured 24 hrs post-HDM challenge by MSD multiplex assay; type: functional, organism-based
Mus musculus [30] = test: Effect on IL-9 level in dust-mite-induced BALB/c mouse model of airway inflammation assessed as greater than 2 fold induction at 6 mg/kg, sc administered for 2 weeks and measured 24 hrs post-HDM challenge by MSD multiplex assay; type: functional, organism-based
Mus musculus [31] = test: Effect on IL-17F level in dust-mite-induced BALB/c mouse model of airway inflammation assessed as greater than 2 fold induction at 6 mg/kg, sc administered for 2 weeks and measured 24 hrs post-HDM challenge by MSD multiplex assay; type: functional, organism-based
Mus musculus [32] = test: Antiinflammatory activity in house dust-mite-induced BALB/c mouse model of airway inflammation assessed as suppression of total leukocyte count in BALF at 6 mg/kg, sc administered for 2 weeks and measured 24 hrs post-HDM challenge by Wright-Giemsa staining based microscopy; type: functional
Mus musculus [33] = test: (§2) Antiinflammatory activity in house dust-mite-induced BALB/c mouse model of methacholine-induced airway hyperreactivity assessed as reduction in methacholine-induced tissue damping at 6 mg/kg , ip administered for 2 weeks after methacholine-stimulation at 50 mg/ml measured 24 hrs post-HDM challenge; type: functional; set-up: scale not given: the % may be the effect or the level left
Mus musculus [34] = test: Effect on IL-1beta level in dust-mite-induced BALB/c mouse model of airway inflammation assessed as greater than 2 fold induction at 6 mg/kg, sc administered for 2 weeks and measured 24 hrs post-HDM challenge by MSD multiplex assay; type: functional, organism-based
Mus musculus [35] = test: Effect on IL-17C level in dust-mite-induced BALB/c mouse model of airway inflammation assessed as greater than 2 fold induction at 6 mg/kg, sc administered for 2 weeks and measured 24 hrs post-HDM challenge by MSD multiplex assay; type: functional, organism-based
Mus musculus [36] = test: as §2, with “newtonian resistance” for “tissue damping”; type: functional; set-up: scale not given: the % may be the effect or the level left
HBEC3-KT [37] = test: Antiinflammatory activity in human HBEC3-KT cells assessed as fold increase in IL-1RA expression at 10 uM measured after 24 hrs by ELISA relative to control; type: functional
[38] = Stability of the compound in human HBEC3-KT cells assessed as compound degradation ay 10 uM measured after 16 hrs by FRET assay relative to control; type: functional
Mus musculus [39] = test: Antiinflammatory activity in house dust-mite-induced BALB/c mouse model of airway inflammation assessed as suppression of total eosinophil count in BALF at 6 mg/kg, sc administered for 2 weeks and measured 24 hrs post-HDM challenge by Wright-Giemsa staining based microscopy; type: functional
Mus musculus [40] = test: Antiinflammatory activity in house dust-mite-induced BALB/c mouse model of methacholine-induced airway hyperreactivity assessed as reduction in methacholine-induced tissue elastance at 6 mg/kg , ip administered for 2 weeks after methacholine-stimulation at 50 mg/ml measured 24 hrs post-HDM challenge; type: functional; set-up: scale not given: the % may be the effect or the level left
Mus musculus [41] = test: Antiinflammatory activity in house dust-mite-induced BALB/c mouse model of airway inflammation assessed as suppression of total neutrophil count in BALF at 6 mg/kg, sc administered for 2 weeks and measured 24 hrs post-HDM challenge by Wright-Giemsa staining based microscopy; type: functional
[42] = Retention time of the compound by HPLC analysis; type: physicochemical
HBEC3-KT [43] = test: Antiinflammatory activity in human HBEC3-KT cells assessed as fold increase in STC1 expression at 10 uM measured after 24 hrs by ELISA relative to control; type: functional
Mus musculus [44] = test: Effect on IL-22 level in dust-mite-induced BALB/c mouse model of airway inflammation assessed as greater than 2 fold induction at 6 mg/kg, sc administered for 2 weeks and measured 24 hrs post-HDM challenge by MSD multiplex assay; type: functional, organism-based
Mus musculus [45] = test: Antiinflammatory activity in house dust-mite-induced BALB/c mouse model of methacholine-induced airway hyperreactivity assessed as reduction in methacholine-induced tissue damping at 6 mg/kg , ip administered for 2 weeks after methacholine-stimulation at 12 mg/ml measured 24 hrs post-HDM challenge; type: functional, organism-based

H-VQRWLIVRRIRK-OH
inactive: Activity (Mus musculus [1]) | Activity (HBEC3-KT [2]) | Activity (Mus musculus [3]) | Activity (Mus musculus [4]) | Activity (Mus musculus [5]) | fold change (FC) (HBEC3-KT [6]) | Activity (Mus musculus [7]) | Activity (Mus musculus [8]) | Activity (Mus musculus [9]) | Activity (Mus musculus [10]) | Activity (Mus musculus [11]) | Activity (Mus musculus [12]) | Activity (Mus musculus [13]) | Activity (HBEC3-KT [14]) | Activity (Mus musculus [15]) | Activity (Mus musculus [16]) | Activity (Mus musculus [17]) | Activity (Mus musculus [18]) | Activity (Mus musculus [19]) | Activity (Mus musculus [20]) | Activity (Mus musculus [21]) | Activity (Mus musculus [22]) | Activity (Mus musculus [23]) | Activity (Mus musculus [25]) | Activity (HBEC3-KT [27]) | Activity (Mus musculus [28]) | Activity (Mus musculus [29]) | Activity (Mus musculus [30]) | Activity (Mus musculus [31]) | Activity (Mus musculus [32]) | Activity (Mus musculus [34]) | Activity (Mus musculus [35]) | Activity (HBEC3-KT [37]) | Activity (Mus musculus [39]) | Activity (Mus musculus [41]) | fold change (FC) (HBEC3-KT [43]) | Activity (Mus musculus [44])
14.04 min: Retention_time [42]
63%: Activity (Mus musculus [40])
64%: Activity (Mus musculus [33])
active: Activity (Mus musculus [24]) | Activity (Mus musculus [26]) | Activity (Mus musculus [45])
<5%: Activity [38]
39%: Activity (Mus musculus [36])
